Test results: PubChem BioAssay AID288 (DTP/NCI, 2004)
Where “and” joins values, the source holds several entries; their conditions need not be identical. Identical values can stand only once. Records with an inconclusive call do not appear.

System: BDF1 mice, M5076 sarcoma s.c., survival/tumor T/C
Test: NCI In Vivo Anticancer Drug Screen. Data for tumor model Sarcoma M5076 (subcutaneous) in B6D2F1 (BDF1) mice
Procedure: The antitumor activity of compounds was measured in mice bearing transplantable tumors. Survival or tumor size were measured and the results are expressed as the measurement made in the treated group (T) divided by the measurement made in the vehicle treated control group (C). The tumor model used in this assay is Sarcoma M5076 (subcutaneous) in B6D2F1 (BDF1) mice

[1] = endpoint: median survival time, dose: 50.0 mg/kg/injection, schedule: Q01DX009 (ip), vehicle: saline with Tween-80, higher = longer survival
[2] = endpoint: median survival time, dose: 100.0 mg/kg/injection, schedule: Q01DX009 (ip), vehicle: saline with Tween-80, higher = longer survival
[3] = endpoint: median survival time, dose: 200.0 mg/kg/injection, schedule: Q01DX009 (ip), vehicle: saline with Tween-80, higher = longer survival
[4] = endpoint: mean tumor weight, dose: 1.5 mg/kg/injection, schedule: Q02DX011 (ip), vehicle: saline, higher = larger tumour
[5] = endpoint: median tumor weight (est.), dose: 1.5 mg/kg/injection, schedule: Q02DX011 (ip), vehicle: saline, higher = larger tumour

`CCOC(=O)CCC1(C(=O)OC)C(=O)CCCCCCCC1C(=O)OC` (stereo unspecified) was tested. Which T/C [1] did it give?
Its T/C is 100 % of control.

And the T/C [2]?
Its T/C is 100 % of control.

And the T/C [3]?
Its T/C is 115 % of control.

Which T/C [1] does the source give for `Cc1ccc(SC(F)(F)C(F)C(F)(F)F)cc1` (stereo unspecified) here?
Its T/C is 98 % of control.

And the T/C [2]?
The T/C was 112 % of control.

And the T/C [3]?
The T/C was 100 % of control.

How did the T/C (endpoint: median survival time, dose: 0.62 mg/kg/injection, schedule: Q04DX003 (ip), vehicle: saline, higher = longer survival) turn out when `Cc1ccc(S(=O)(=O)N/N=C/C(Br)=C(/Br)C(=O)O)cc1` was run?
Its T/C is 99 % of control.

And the T/C (endpoint: median survival time, dose: 1.25 mg/kg/injection, schedule: Q04DX003 (ip), vehicle: saline, higher = longer survival)?
Its T/C is 101 % of control.

What about the T/C (endpoint: median survival time, dose: 2.5 mg/kg/injection, schedule: Q04DX003 (ip), vehicle: saline, higher = longer survival) of the same compound?
The T/C was 99 % of control and 96 % of control.

What about the T/C (endpoint: median survival time, dose: 5.0 mg/kg/injection, schedule: Q04DX003 (ip), vehicle: saline, higher = longer survival) of the same compound?
The T/C was 109 % of control and 92 % of control.

And the T/C (endpoint: median survival time, dose: 7.5 mg/kg/injection, schedule: Q04DX003 (ip), vehicle: saline, higher = longer survival)?
The T/C was 83 % of control.

What about the T/C (endpoint: median survival time, dose: 11.3 mg/kg/injection, schedule: Q04DX003 (ip), vehicle: saline, higher = longer survival) of the same compound?
The T/C was 88 % of control.

Which T/C (endpoint: mean tumor weight, dose: 12.5 mg/kg/injection, schedule: Q02DX011 (ip), vehicle: saline, higher = larger tumour) does the source give for `C[C@]12C=CC(=O)C=C1CC[C@@H]1[C@@H]2C(=O)C[C@@]2(C)[C@H]1CC[C@]2(O)C(=O)CO` here?
Its T/C is 82 % of control.

And the T/C (endpoint: mean tumor weight, dose: 25.0 mg/kg/injection, schedule: Q02DX011 (ip), vehicle: saline, higher = larger tumour)?
Its T/C is 52 % of control.

And the T/C (endpoint: mean tumor weight, dose: 50.0 mg/kg/injection, schedule: Q02DX011 (ip), vehicle: saline, higher = larger tumour)?
Its T/C is 59 % of control.

Which results are given for `Nc1ncnc2c1ccn2C1OC(CO)C(O)C1O` (stereo unspecified)?
T/C (endpoint: mean tumor weight, dose: 0.75 mg/kg/injection, schedule: Q02DX011 (ip), vehicle: saline, higher = larger tumour): 117 % of control; T/C [4]: 101 % of control; T/C (endpoint: median tumor weight (est.), dose: 0.38 mg/kg/injection, schedule: Q02DX011 (ip), vehicle: saline, higher = larger tumour): 82 % of control; T/C (endpoint: median tumor weight (est.), dose: 0.75 mg/kg/injection, schedule: Q02DX011 (ip), vehicle: saline, higher = larger tumour): 168 % of control; T/C [5]: 110 % of control

Which T/C (endpoint: mean tumor weight, dose: 37.5 mg/kg/injection, schedule: Q02DX011 (ip), vehicle: saline, higher = larger tumour) does the source give for `COc1cc2cc3c4cc(OC)c(OC)cc4cc[n+]3c(C)c2cc1OC` (tested in a mixture with another compound) here?
The T/C was 64 % of control.

What about the T/C (endpoint: mean tumor weight, dose: 75.0 mg/kg/injection, schedule: Q02DX011 (ip), vehicle: saline, higher = larger tumour) of the same compound?
The T/C was 45 % of control.

What about the T/C (endpoint: mean tumor weight, dose: 150.0 mg/kg/injection, schedule: Q02DX011 (ip), vehicle: saline, higher = larger tumour) of the same compound?
The T/C was 13 % of control.

With `NCCNCC(O)CO` (stereo unspecified) as the compound, how does the T/C (endpoint: median survival time, dose: 50.0 mg/kg/injection, schedule: Q01DX009 (ip), vehicle: saline, higher = longer survival) read?
The T/C was 90 % of control.

What about the T/C (endpoint: median survival time, dose: 100.0 mg/kg/injection, schedule: Q01DX009 (ip), vehicle: saline, higher = longer survival) of the same compound?
Its T/C is 112 % of control.

What about the T/C (endpoint: median survival time, dose: 200.0 mg/kg/injection, schedule: Q01DX009 (ip), vehicle: saline, higher = longer survival) of the same compound?
Its T/C is 105 % of control.

What about the T/C (endpoint: median tumor weight (est.), dose: 100.0 mg/kg/injection, schedule: Q01DX009 (ip), vehicle: saline, higher = larger tumour) of the same compound?
The T/C was 76 % of control.

What about the T/C (endpoint: median tumor weight (est.), dose: 200.0 mg/kg/injection, schedule: Q01DX009 (ip), vehicle: saline, higher = larger tumour) of the same compound?
Its T/C is 115 % of control.

`COc1cc(/C=C2\SC(=S)N(c3ccc(Cl)c(Cl)c3)C2=O)ccc1O` was tested. Which T/C [1] did it give?
The T/C was 90 % of control.

And the T/C [2]?
The T/C was 94 % of control.

And the T/C (endpoint: median tumor weight (est.), dose: 50.0 mg/kg/injection, schedule: Q01DX009 (ip), vehicle: saline with Tween-80, higher = larger tumour)?
Its T/C is 105 % of control.

And the T/C (endpoint: median tumor weight (est.), dose: 100.0 mg/kg/injection, schedule: Q01DX009 (ip), vehicle: saline with Tween-80, higher = larger tumour)?
Its T/C is 117 % of control.

Which results are given for `COC12C(COC(N)=O)C3=C(C(=O)C(C)=C(N)C3=O)N1CC1C2N1C` (stereo unspecified)?
T/C [4]: 59 % of control; T/C (endpoint: mean tumor weight, dose: 3.0 mg/kg/injection, schedule: Q02DX011 (ip), vehicle: saline, higher = larger tumour): 51 % of control; T/C (endpoint: mean tumor weight, dose: 6.0 mg/kg/injection, schedule: Q02DX011 (ip), vehicle: saline, higher = larger tumour): 2 % of control; T/C [5]: 65 % of control; T/C (endpoint: median tumor weight (est.), dose: 3.0 mg/kg/injection, schedule: Q02DX011 (ip), vehicle: saline, higher = larger tumour): 49 % of control and 53 % of control; T/C (endpoint: median tumor weight (est.), dose: 6.0 mg/kg/injection, schedule: Q02DX011 (ip), vehicle: saline, higher = larger tumour): 1 % of control

For `C[C@@]12C(=O)OC(=O)[C@]1(C)[C@H]1CC[C@@H]2O1`, which T/C (endpoint: median survival time, dose: 0.1 mg/kg/injection, schedule: Q01DX009 (ip), vehicle: acetone, higher = longer survival) is on record?
Its T/C is 94 % of control.

And the T/C (endpoint: median survival time, dose: 0.2 mg/kg/injection, schedule: Q01DX009 (ip), vehicle: acetone, higher = longer survival)?
Its T/C is 106 % of control.

What about the T/C (endpoint: median survival time, dose: 0.4 mg/kg/injection, schedule: Q01DX009 (ip), vehicle: acetone, higher = longer survival) of the same compound?
Its T/C is 101 % of control.

What about the T/C (endpoint: median survival time, dose: 0.8 mg/kg/injection, schedule: Q01DX009 (ip), vehicle: acetone, higher = longer survival) of the same compound?
Its T/C is 89 % of control.

What about the T/C (endpoint: median tumor weight (est.), dose: 0.1 mg/kg/injection, schedule: Q01DX009 (ip), vehicle: acetone, higher = larger tumour) of the same compound?
The T/C was 117 % of control.

What about the T/C (endpoint: median tumor weight (est.), dose: 0.2 mg/kg/injection, schedule: Q01DX009 (ip), vehicle: acetone, higher = larger tumour) of the same compound?
The T/C was 64 % of control.

And the T/C (endpoint: median tumor weight (est.), dose: 0.4 mg/kg/injection, schedule: Q01DX009 (ip), vehicle: acetone, higher = larger tumour)?
The T/C was 109 % of control.

What about the T/C (endpoint: median tumor weight (est.), dose: 0.8 mg/kg/injection, schedule: Q01DX009 (ip), vehicle: acetone, higher = larger tumour) of the same compound?
The T/C was 90 % of control.
